According to ChEMBL document CHEMBL1201862, “PubChem BioAssay data set” (2004):
Where a name gives a salt, the structure may show the parent alone. The source made the active and inactive calls.

Assays:
[1] = target: Glucose-6-phosphate 1-dehydrogenase (Homo sapiens, UniProt P11413); assay: inhibition of Homo sapiens G6PD, dose series – biochemical, fluorescence, selectivity assay for P. falciparum G6PD inhibitor project, dose response (AID 504792); type: functional
Escherichia coli [2] = assay: microbe, parasite or virus in culture
Trypsin = Trypsin (Sus scrofa, UniProt P00761); assay: trypsin protease activity blockade – biochemical, quenched peptide fluorescence, cherry-pick, selectivity assay for Rce1 protease inhibitor project, dose response (AID 488789)
Sequence of Trypsin (P00761 whole entry): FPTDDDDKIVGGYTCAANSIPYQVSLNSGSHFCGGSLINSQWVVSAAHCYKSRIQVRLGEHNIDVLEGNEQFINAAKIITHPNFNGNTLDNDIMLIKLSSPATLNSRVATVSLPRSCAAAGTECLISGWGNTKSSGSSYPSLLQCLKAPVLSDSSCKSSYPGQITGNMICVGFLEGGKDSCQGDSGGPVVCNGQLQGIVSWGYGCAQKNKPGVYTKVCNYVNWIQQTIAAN

CAAX prenyl protease 2 [3] = target: T1, CAAX prenyl protease 2 (Saccharomyces cerevisiae S288c, UniProt Q03530); type: biochemical
T1 sequence (Q03530 whole entry): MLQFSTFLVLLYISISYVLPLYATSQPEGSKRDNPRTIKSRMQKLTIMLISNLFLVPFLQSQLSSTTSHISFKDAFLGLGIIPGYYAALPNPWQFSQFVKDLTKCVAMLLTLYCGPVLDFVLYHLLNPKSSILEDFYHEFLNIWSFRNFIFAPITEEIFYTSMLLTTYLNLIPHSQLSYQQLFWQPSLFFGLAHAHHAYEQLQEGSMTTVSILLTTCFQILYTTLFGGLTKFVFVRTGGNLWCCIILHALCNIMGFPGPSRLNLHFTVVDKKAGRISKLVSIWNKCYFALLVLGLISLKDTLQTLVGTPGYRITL

CAAX prenyl protease 2 [4] = target: CAAX prenyl protease 2 (Homo sapiens, UniProt Q9Y256); assay: inhibition of Ras-converting CAAX protease Rce1 – biochemical, yeast membranes, quenched-peptide fluorescence, cherry-pick, dose response (AID 588849)
Sequence of CAAX prenyl protease 2 (Homo sapiens, UniProt Q9Y256) (Q9Y256 whole entry): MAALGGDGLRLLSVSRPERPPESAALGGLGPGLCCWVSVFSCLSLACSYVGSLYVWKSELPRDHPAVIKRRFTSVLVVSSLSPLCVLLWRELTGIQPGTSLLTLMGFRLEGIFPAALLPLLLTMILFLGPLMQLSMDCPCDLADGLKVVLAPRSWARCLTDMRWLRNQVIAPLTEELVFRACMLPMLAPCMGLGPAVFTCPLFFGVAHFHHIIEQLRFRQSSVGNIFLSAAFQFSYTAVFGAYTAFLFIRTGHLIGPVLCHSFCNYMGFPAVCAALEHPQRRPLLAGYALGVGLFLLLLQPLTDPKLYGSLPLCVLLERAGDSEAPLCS

[5] = target: T2, Short transient receptor potential channel 4 (Mus musculus, UniProt Q9QUQ5); assay: calcium entry via TRPC4 opening agents – cell-based, HEK293 TRPC4/mu-opioid, Fluo-4 calcium, dose response (AID 434937); type: functional
T2 sequence (Q9QUQ5 whole entry): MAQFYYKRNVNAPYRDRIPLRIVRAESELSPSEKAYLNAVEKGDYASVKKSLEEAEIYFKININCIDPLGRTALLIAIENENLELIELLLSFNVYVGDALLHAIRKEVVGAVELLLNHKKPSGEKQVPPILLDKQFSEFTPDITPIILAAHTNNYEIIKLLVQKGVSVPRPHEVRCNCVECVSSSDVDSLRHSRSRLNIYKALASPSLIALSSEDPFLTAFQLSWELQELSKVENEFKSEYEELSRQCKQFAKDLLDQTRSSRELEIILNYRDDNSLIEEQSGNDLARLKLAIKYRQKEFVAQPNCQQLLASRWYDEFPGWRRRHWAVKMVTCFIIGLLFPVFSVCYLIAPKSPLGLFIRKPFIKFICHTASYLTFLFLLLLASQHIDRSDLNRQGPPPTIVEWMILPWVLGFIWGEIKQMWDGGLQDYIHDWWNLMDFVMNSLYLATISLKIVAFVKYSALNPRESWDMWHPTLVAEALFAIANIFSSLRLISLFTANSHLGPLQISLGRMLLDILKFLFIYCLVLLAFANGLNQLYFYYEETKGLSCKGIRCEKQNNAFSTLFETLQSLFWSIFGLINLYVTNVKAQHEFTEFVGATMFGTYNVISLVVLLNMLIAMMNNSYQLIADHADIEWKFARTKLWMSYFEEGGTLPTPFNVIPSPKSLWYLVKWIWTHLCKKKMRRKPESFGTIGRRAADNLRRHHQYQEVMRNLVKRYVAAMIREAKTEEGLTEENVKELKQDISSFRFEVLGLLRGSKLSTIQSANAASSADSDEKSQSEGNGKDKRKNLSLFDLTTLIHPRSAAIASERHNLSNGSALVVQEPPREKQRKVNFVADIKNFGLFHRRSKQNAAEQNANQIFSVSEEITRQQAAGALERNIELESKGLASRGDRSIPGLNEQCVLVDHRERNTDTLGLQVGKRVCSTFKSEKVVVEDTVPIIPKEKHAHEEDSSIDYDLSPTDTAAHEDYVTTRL

Vero [6] = assay: cells; type: functional, cell-based; conditions: Chlorocebus sabaeus
Vero [7] = assay: cells; type: functional; conditions: Chlorocebus sabaeus
[8] = HGIII-sPLA2 enzyme inhibition potency – biochemical, QFRET, IC50, dose response (AID 743457);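 also: green fluorescence rise as the enzyme cleaves BODIPY PC-A2 in liposomes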
Escherichia coli [9] = assay: microbe, parasite or virus in culture; remark: listed apart in the source
[10] = Luminescence Cell-Based Dose Retest to Confirm Inhibitors of Cancer Stem Cells. [Related pubchem assays (depositor defined):AID2717, AID2721]; type: functional; conditions: Homo sapiens
[11] = viability loss of HMLE_sh_eGFP cells – cell-based, luminescence, counter-screen for HMLE_sh_ECad selective toxicity project, dose response (AID 463074); type: functional, Homo sapiens;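 also: HMLE human mammary epithelial cells expressing control shRNA against eGFP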
HEK293 = assay: cells; type: functional, cell-based; conditions: Homo sapiens
[12] = target: T3, Nuclear receptor subfamily 0 group B member 1 (Homo sapiens, UniProt P51843); assay: Luminescence-based cell-based high throughput dose response assay for inhibitors of the orphan nuclear receptor subfamily 0, group B, member 1 (DAX1; NR0B1). [Related pubchem assays (depositor defined):AID504766, AID504790]; type: functional
T3 sequence (P51843 whole entry): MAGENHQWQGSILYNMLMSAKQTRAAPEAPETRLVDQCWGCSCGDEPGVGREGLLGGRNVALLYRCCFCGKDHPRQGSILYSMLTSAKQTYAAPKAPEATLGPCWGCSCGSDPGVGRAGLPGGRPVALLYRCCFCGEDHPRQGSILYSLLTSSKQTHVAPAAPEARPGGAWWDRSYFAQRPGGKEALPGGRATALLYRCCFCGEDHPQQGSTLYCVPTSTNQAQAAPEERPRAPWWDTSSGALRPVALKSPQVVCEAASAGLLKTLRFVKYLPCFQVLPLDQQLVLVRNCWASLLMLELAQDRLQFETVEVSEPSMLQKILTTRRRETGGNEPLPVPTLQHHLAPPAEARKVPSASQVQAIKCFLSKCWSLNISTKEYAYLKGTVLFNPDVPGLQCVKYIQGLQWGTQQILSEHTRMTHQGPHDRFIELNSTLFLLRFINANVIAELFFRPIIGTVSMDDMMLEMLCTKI

[13] = target: T4, Tyrosine-protein phosphatase non-receptor type 7 (Homo sapiens, UniProt P35236); type: functional
T4 sequence (P35236 whole entry): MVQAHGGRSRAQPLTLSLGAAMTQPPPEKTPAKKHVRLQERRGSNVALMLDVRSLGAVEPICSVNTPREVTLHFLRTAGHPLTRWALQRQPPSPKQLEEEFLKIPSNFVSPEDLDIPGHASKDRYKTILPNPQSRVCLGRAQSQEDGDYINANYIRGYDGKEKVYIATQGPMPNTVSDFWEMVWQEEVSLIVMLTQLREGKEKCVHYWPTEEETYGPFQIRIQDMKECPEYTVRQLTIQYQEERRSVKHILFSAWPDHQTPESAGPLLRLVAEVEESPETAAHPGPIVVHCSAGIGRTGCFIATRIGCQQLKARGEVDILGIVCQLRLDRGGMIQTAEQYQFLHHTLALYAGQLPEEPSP

[14] = target: Glyceraldehyde-3-phosphate dehydrogenase (Homo sapiens, UniProt P04406)
Sequence of Glyceraldehyde-3-phosphate dehydrogenase (P04406 whole entry): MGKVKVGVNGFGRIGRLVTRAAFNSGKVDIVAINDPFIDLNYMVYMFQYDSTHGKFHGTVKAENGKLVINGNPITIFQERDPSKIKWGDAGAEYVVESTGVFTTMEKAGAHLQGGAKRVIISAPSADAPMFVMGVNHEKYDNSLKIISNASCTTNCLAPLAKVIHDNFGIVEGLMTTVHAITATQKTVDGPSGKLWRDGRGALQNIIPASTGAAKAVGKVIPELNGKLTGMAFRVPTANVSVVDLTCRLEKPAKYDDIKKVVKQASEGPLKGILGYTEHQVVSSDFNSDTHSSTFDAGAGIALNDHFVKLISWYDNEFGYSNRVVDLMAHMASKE

[15] = target: T5, E3 ubiquitin-protein ligase XIAP (Homo sapiens, UniProt P98170); assay: Counter Screen using XIAP-Bir3 for Chemical Antagonists of Bir1/2 domains of IAP-family anti-apoptotic proteins. [Related pubchem assays (depositor defined):AID1018, AID1449, AID1514, AID1638, AID1749, AID1750, AID488957, AID488963]
T5 sequence (P98170 whole entry): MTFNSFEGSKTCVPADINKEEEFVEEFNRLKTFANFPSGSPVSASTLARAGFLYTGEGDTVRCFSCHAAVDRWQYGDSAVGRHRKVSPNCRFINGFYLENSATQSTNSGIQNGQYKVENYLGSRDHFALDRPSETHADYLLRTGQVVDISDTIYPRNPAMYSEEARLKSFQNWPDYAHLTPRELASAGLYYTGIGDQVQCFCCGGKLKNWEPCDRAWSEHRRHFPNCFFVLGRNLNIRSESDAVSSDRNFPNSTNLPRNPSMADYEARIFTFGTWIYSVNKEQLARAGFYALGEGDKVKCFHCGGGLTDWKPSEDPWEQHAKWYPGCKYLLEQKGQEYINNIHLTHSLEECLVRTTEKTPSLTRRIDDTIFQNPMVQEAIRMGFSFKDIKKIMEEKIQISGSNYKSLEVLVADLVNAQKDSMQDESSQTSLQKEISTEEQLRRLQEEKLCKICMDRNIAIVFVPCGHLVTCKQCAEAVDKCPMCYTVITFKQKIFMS

[16] = target: T5, E3 ubiquitin-protein ligase XIAP; assay: small molecules displacing peptide from XIAP – biochemical, IAP family, fluorescence polarization (AID 1018); type: functional
[17] = target: T6, Dual specificity protein phosphatase 6 (Rattus norvegicus, UniProt Q64346)
T6 sequence (Q64346 whole entry): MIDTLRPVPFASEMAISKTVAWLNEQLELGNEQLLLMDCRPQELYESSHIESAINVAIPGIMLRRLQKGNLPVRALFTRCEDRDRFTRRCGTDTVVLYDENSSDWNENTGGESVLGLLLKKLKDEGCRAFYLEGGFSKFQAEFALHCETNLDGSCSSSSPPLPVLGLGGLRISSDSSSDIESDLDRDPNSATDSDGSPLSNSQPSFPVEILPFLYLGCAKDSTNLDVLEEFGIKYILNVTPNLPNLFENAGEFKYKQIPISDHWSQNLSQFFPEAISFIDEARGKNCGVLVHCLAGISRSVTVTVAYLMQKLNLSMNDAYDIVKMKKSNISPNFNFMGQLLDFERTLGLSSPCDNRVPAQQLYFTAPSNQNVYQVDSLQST

[18] = target: T6, Dual specificity protein phosphatase 6; type: functional
[19] = tested on: Streptococcus sp. 'group A'; assay: Streptococcus pyogenes SK(-)GAS viability under kanamycin – luminescence, BacTiterGlo, confirmation, counter-screen for streptokinase expression inhibitor project, dose response (AID 1900); type: functional, organism-based
NS3 = NS3 (Hepatitis C virus, UniProt A3EZJ3); assay: PubChem AID 2173; design: species or system Hepacivirus hominis
Sequence of NS3 (A3EZJ3 whole entry): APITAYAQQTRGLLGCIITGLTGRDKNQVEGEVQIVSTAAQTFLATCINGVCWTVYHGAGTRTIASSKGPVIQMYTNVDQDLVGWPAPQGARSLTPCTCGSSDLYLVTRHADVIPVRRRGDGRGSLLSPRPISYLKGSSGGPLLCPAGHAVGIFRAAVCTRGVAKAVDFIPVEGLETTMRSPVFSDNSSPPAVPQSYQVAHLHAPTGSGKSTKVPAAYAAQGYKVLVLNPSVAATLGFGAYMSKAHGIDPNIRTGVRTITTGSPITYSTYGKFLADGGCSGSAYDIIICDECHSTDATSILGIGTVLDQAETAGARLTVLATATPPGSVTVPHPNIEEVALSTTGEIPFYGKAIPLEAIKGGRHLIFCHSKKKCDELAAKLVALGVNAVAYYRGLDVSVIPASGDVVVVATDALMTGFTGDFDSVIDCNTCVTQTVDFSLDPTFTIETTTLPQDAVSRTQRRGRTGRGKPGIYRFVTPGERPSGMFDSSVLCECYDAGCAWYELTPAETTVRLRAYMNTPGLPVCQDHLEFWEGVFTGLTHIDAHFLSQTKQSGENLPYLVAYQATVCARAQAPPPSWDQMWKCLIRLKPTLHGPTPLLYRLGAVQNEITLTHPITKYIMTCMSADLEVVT

[20] = mitochondrial function rescue without frataxin homolog – Friedreich's ataxia, plus single-dose screen, dose response (AID 1465); type: functional;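 also: yeast depleted of Yfh1p frataxin homolog grown on glycerol needing respiration; WST-1 tetrazolium dye reduction as measure of cellular dehydrogenase metabolic activity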
Streptococcus = assay: GAS UMAA2166 growth inhibition – luminescence, BacTiterGlo, counter-screen for streptokinase expression inhibitor project, dose response (AID 1915); type: functional, organism-based;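 also: potency for reduction of bacterial viability or growth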
[21] = target: T7, Rac GTPase-activating protein 1 (Homo sapiens, UniProt Q9H0H5); assay: blockers of MgcRacGAP-driven Rac1 GTP hydrolysis – biochemical, ADP Hunter fluorescence, primary and confirmatory, confirmation (AID 624330); type: functional
T7 sequence (Q9H0H5 whole entry): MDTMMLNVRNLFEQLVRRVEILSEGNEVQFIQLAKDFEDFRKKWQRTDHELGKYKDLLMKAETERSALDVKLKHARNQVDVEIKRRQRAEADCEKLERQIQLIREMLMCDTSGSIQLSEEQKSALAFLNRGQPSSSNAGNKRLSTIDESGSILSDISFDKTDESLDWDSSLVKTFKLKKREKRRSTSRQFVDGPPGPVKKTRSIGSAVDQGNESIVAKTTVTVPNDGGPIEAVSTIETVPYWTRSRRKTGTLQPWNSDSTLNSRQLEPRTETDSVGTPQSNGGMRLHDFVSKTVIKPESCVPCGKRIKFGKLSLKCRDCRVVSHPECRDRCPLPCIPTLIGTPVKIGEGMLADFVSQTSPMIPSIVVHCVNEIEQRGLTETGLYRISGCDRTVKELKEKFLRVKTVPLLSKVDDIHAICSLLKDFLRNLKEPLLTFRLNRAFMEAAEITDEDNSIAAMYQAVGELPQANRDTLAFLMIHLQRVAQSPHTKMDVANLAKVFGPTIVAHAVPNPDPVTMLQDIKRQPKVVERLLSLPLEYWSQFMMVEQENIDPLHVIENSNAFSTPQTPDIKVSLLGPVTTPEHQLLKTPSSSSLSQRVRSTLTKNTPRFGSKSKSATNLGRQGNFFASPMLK

[22] = target: 1-phosphatidylinositol 4,5-bisphosphate phosphodiesterase gamma-1 (Homo sapiens, UniProt P19174); assay: Counterscreen for inhibitors of phospholipase C isozymes (PLC-B3): Fluorescence-based biochemical high throughput dose response assay to identify inhibitors of phospholipase C isozymes (PLC-gamma1).
[23] = target: 1-phosphatidylinositol 4,5-bisphosphate phosphodiesterase beta-3 (Homo sapiens, UniProt Q01970); assay: Fluorescence-based biochemical high throughput dose response assay to identify inhibitors of phospholipase C isozymes (PLC-B3).
Sequence of 1-phosphatidylinositol 4,5-bisphosphate phosphodiesterase beta-3 (Q01970 whole entry): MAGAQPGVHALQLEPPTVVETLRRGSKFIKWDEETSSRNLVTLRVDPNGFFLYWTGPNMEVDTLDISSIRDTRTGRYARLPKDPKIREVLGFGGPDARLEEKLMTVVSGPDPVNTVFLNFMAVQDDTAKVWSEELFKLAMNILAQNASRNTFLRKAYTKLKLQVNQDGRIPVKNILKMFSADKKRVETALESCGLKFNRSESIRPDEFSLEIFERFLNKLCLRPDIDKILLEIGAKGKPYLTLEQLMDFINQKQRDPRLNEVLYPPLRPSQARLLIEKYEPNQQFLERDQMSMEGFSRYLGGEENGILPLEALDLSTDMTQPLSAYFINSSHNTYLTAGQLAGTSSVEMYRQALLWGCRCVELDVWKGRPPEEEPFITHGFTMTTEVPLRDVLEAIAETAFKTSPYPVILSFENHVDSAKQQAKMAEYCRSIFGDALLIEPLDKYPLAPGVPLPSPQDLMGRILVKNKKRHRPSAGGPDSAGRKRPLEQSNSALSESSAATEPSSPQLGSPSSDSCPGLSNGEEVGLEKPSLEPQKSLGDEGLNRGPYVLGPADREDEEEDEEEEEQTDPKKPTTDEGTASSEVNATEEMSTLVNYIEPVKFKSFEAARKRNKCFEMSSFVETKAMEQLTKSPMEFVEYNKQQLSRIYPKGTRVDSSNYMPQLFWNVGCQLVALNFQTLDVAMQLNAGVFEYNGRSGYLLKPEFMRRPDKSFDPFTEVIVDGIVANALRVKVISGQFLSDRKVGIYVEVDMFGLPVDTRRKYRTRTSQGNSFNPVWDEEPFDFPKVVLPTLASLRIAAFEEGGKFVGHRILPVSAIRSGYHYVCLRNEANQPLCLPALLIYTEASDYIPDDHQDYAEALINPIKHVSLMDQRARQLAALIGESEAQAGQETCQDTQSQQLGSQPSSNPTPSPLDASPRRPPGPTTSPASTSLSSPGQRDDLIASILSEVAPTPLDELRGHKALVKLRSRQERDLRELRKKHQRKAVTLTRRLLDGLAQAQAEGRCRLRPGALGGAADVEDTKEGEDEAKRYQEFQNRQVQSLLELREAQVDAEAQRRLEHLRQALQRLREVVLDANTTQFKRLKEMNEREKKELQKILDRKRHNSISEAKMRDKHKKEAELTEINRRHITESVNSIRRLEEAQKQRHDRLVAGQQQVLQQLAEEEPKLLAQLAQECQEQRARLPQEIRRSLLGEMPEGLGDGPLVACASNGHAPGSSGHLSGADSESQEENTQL

Sequence of Glucose-6-phosphate 1-dehydrogenase (P11413 whole entry): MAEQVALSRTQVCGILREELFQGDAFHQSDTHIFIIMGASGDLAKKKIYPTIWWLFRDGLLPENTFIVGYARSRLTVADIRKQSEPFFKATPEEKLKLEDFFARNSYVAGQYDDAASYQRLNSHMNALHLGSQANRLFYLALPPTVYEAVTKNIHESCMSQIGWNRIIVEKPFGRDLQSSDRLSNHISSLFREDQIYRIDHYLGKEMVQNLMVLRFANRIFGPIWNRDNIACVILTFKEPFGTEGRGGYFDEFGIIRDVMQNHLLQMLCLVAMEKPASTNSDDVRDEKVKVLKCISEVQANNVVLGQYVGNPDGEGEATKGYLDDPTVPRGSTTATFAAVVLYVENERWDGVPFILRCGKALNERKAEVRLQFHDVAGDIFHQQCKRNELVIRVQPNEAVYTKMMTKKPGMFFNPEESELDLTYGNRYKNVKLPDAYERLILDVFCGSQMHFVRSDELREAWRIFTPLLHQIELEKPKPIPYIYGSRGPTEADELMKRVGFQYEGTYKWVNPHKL

C=CCOc1c(Cl)cc(CNc2ccc3[nH]c(O)nc3c2)cc1OC
IC50 [1]: > 80 µM (inactive)

Cc1ccc(-c2[nH]nc3c2C(c2ccccc2)N(c2ccc(C(=O)O)cc2)C3=O)cc1 (configuration not stated)
AC50 (Escherichia coli [2]): 35.3 µM (active)

CCOc1ccc(S(=O)(=O)Nc2cc(OC)c(OC)cc2C(=O)O)cc1
AC50 (Trypsin): 7.53 µM (active)
AC50 (CAAX prenyl protease 2 [3]): 9.8 µM (active)
AC50 (CAAX prenyl protease 2 [4]): 4.23 µM (active)

COc1ccc(C(=O)NC(=S)NNC(=O)c2cccc(C)c2)cc1
EC50 [5]: 3.35 µM (active)
IC50 (Vero [6]): 23.7 µM (active)
CC50 (Vero [7]): > 25 µM (active)
IC50 [8]: 75.7 µM (inactive)

C/C=C(/C)C(=O)Nc1cccc(C2=NOC3(C2)C[C@H](C(N)=O)N(C(=O)c2ccc(Cl)cc2)C3)c1 (some centres not stated)
AC50 (Escherichia coli [9]): 48 µM (active)

Cc1ccc(P(=S)(c2ccc(C)o2)N2CCOCC2)o1
AC50 [10]: > 195 µM (inactive)
AC50 [11]: 78.2 µM (active)

Cn1c(C(=O)N2CCCC(C(=O)NCCCSC3CCCCC3)C2)cc2sccc21 (configuration not stated)
AC50 [10]: 5.7 µM (active)
AC50 [11]: 21.6 µM (active)

Cc1ccc2nc(-c3ccc(NC(=S)NCC(C)(C)CN(C)C)cc3)sc2c1
IC50 (Vero [6]): 15.4 µM (active)
IC50 (HEK293): > 67.5 µM (inactive)
IC50 [12]: > 67.5 µM (inactive)

O=C(O)[C@@H](O)c1ccccc1
IC50 [13]: > 100 µM (not active)
IC50 [14]: > 100 µM (not active)
IC50 [15]: > 100 µM (inactive)
IC50 [16]: > 100 µM (not active)
IC50 [17]: > 100 µM (inactive)
IC50 [18]: > 100 µM (inactive)

C=C1c2cccc(O)c2C(=O)C2=C(O)[C@]3(O)C(=O)C(C(N)=O)=C(O)[C@@H](N(C)C)[C@@H]3[C@@H](O)[C@H]12 [METHACYCLINE HYDROCHLORIDE]
EC50 [19]: 0.099 µM (active)
IC50 (NS3): > 109 µM (not active)
EC50 [20]: > 100 µM (active)
EC50 (Streptococcus): 0.109 µM (active)
IC50 [21]: 66.8 µM (active)
IC50 [22]: > 122 µM (inactive)
IC50 [23]: > 122 µM (inactive)
AC50 (Escherichia coli [2]): 29.5 µM (active)
AC50 (Escherichia coli [9]): 0.707 µM (active)
